Entries after “also recorded” stand apart in the source; their conditions may differ. Like-named read-outs stand apart in the source and are kept apart here.

For test [1], the system named is IL-10(tm/tm) mouse aorta. The test is described as follows: Force-tension myography, ACH dependent vasorelaxation of phenylephrine pre-constricted IL-10(tm/tm) aortic rings. As to conditions: for Effect on endothelial dependent vasorelaxation / Effect on vasoconstrictive responses to ACH: old IL-10(tm/tm) aortas; for EC50 / Emax: Mus musculus. It counts as cell-based. The text has this: (§1) Animals: Age-matched IL-10 deficient (IL-10(tm/tm)); B6.129P2IL10tm1Cgn/J and control mice (C576L6; WT) were obtained from Jackson Laboratories (Bar Harbor, Me., USA). IL-10(tm/tm) mice used are homozygous for the IL10tm1Cgn targeted mutation. These mice were housed in Association for Assessment and Accreditation of Laboratory Animal Care International accredited facilities and pathogen contact prevention (prophylaxis from infections, inflammatory bowel disease and early mortality) was achieved under specific pathogen-free (SPF) barrier conditions until terminal experiments were carried out. It is known that the pro-inflammatory potential achieved by the lack of IL-10 in this mouse model can be attributed to activation of TNF-α and IL-1β synthesis via IFN-γ, which is produced in massive amounts and also is important inantigen presentation and pathogen death via activation of macrophages. Animals with any signs of inflammatory/infectious disease were ruled out of the study. The study was performed at approximately 3-4 months (young) and 9 months of age or greater (old).
(§2) Vascular endothelial function was assessed using force-tension myography. Mouse aortas were isolated and cleaned in ice-cold Krebs-Ringer-bicarbonate solution containing the following (in mM): 118.3 NaCI, 4.7 KCI, 1.6 CaCl2, 1.2 KH2 PO4, 25 NaHCO3, 1.2 MgSO4, and 11.1 dextrose. Vascular tension changes were determined as previously described (J Appl Physiol, 2000. 89(6): p. 2382-90). Briefly, one end of the aortic rings was connected to a transducer, and the other to a micromanipulator. The aorta was immersed in a bath filled with constantly oxygenated Krebs buffer at 37° C. Equal size thoracic aortic rings (2 mm) were mounted using a microscope, ensuring no damage to the smooth muscle or endothelium. The aortas were passively stretched to an optimal resting tension using the micromanipulator, after which a dose of 60 mM KCI was administered, and repeated after a wash with Krebs buffer. After these washes, the vessels were allowed to equilibrate for 20-30 min. Phenylephrine (1 μM) was administered to induce vasoconstriction. A dose-dependent response (1 nM to 10 μM), with the muscarinic agonist, ACH, was then performed. The responses were repeated in the presence of inhibitors. Relaxation responses were calculated as a percentage of tension following pre-constriction. Sigmoidal dose-response curves were fitted to data with the minimum constrained to 0.
(§3) Vascular Studies. In ex vivo myograph experiments, measured tension represents a balance between vasorelaxant and vasoconstrictor dependent function and mediators. In phenylephrine pre-constricted isolated mouse aorta, ACH stimulates the release of endothelial factors, which mediate vasorelaxation as a result of greater relaxation than constriction.

Test [2] has as its system WT mouse aorta. The test is described as follows: Force-tension myography, ACH dependent vasorelaxation of phenylephrine pre-constricted WT aortic rings. It counts as cell-based.
From the text: as §1, §2, §3

Setting [3] is: pre-incubation with 3 μM indomethacin.
[4] abbreviates: pre-incubation with 100 nM SQ29548.
Setting [5] is: pre-incubation with 5 μM nimesulide.

With `COc1ccc2c(c1)c(CC(=O)O)c(C)n2C(=O)c1ccc(Cl)cc1` [indomethacin], in test [1] (setting [3]), the “Effect on endothelial dependent vasorelaxation” value is “significantly improved endothelial dependent vasorelaxation” and the “Effect on vasoconstrictive responses to ACH” value (“Effect … to ACH” below) is “abolished the vasoconstrictive responses”.
In general, EC50 refers to the midpoint of the concentration-response curve. In general, Emax refers to the size of the effect at its maximum, as opposed to the concentration needed. As to `CC(=O)OCC[N+](C)(C)C` [ACH, Acetylcholine], the 50% effective concentration (EC50) turned out to be 39.4 nM in test [1] (old IL-10(tm/tm) mice aortas, n=6, read-out: EC50 of ACH mediated vasorelaxation); 50.1 nM in test [1] (young IL-10(tm/tm) mice aortas, phenylephrine pre-constricted, read-out: EC50 of ACH dose response (vasorelaxation)); 251 nM in test [2] (old WT mice aortas, n=6, read-out: EC50 of ACH mediated vasorelaxation); 126 nM in test [2] (young WT mice aortas, phenylephrine pre-constricted, read-out: EC50 of ACH dose response (vasorelaxation)). Besides, the Emax in test [1] (old IL-10(tm/tm) mice aortas, n=6, read-out: Emax of ACH mediated vasorelaxation) was determined as 30.7 ± 9.3%; in test [1] (young IL-10(tm/tm) mice aortas, phenylephrine pre-constricted, read-out: Emax of ACH dose response (vasorelaxation)), 71.9 ± 5.7%; in test [2] (old WT mice aortas, n=6, read-out: Emax of ACH mediated vasorelaxation) it was 98.5 ± 14.1%; in test [2] (young WT mice aortas, phenylephrine pre-constricted, read-out: Emax of ACH dose response (vasorelaxation)) it was 80.9 ± 4.6%.
As for `O=C(O)CCC/C=C\C[C@@H]1[C@H](CNNC(=O)Nc2ccccc2)[C@H]2CC[C@@H]1O2` [SQ29548], in test [1] (setting [4]), the “Effect on endothelial dependent vasorelaxation” value is recorded as “enhanced endothelial dependent vasorelaxation; also recorded: significantly improved endothelial dependent vasorelaxation” and the “Effect … to ACH” value is “abolished the vasoconstrictive responses”.
With `CS(=O)(=O)Nc1ccc([N+](=O)[O-])cc1Oc1ccccc1` [nimesulide], in test [1] (setting [5]), the “Effect on endothelial dependent vasorelaxation” value is listed as “enhanced endothelial dependent vasorelaxation; also recorded: significantly improved endothelial dependent vasorelaxation” and the “Effect … to ACH” value was “abolished the vasoconstrictive responses”.

(Values after patent publication US20130121961A1, “TREATMENT MODALITIES TO PREVENT OR TREAT LOSS OF CARDIOVASCULAR FUNCTION IN AGING HUMANS” (THE JOHNS HOPKINS UNIVERSITY, priority 2011, published 2013).)
